According to paper PMC12892976, “Alkylation-based optimization of antifungal FPPS inhibitors yields a potent, broad-spectrum lipophilic zoledronate derivative” (mBio, 2025):

Assays:
Aspergillus fumigatus [1] = assay: MIC/MFC broth microdilution (CLSI); conditions: ATCC204305
Method: (§1) Antifungal susceptibility was determined by broth microdilution according to the CLSI guidelines described in M27-Ed4 ([16]). […] MFC was determined by back-plating drug-treated cultures from MIC broths onto SDA plates. The MFC was defined as the lowest concentration from which no colonies could be cultured.

Aspergillus flavus = assay: checkerboard drug interaction (FICI, MICc);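 further: simplified diagonal checkerboard screen pairing azole antifungals with FPPS inhibitors, FICI calculated under the Loewe additivity model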; type: cell-based; parameters: INH MICc (KET:INH) / INH MICc (FLC:INH): unit not given beside the values; conditions: A. flavus
Saccharomyces cerevisiae = assay: checkerboard drug interaction (FICI, MICc);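 on all read-outs here: simplified diagonal checkerboard screen pairing antifungals with FPPS inhibitors, FICI calculated under the Loewe additivity model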; type: cell-based; parameters: INH MICc / INH MICc (ITR:INH) / INH MICc (KET:INH) / INH MICc (FLC:INH): unit not given beside the values; conditions: S. cerevisiae; for INH FD (MIC-MICc fold decrease): fold decrease of inhibitor MIC
[2] = test system: Cryptococcus deuterogattii; assay: MIC/MFC broth microdilution (CLSI); conditions: Cryptococcus deuterogattii;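 further: broth microdilution per CLSI M27-Ed4. MFC is the lowest concentration yielding no colonies when MIC broths are subcultured onto SDA plates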
Method: as §1

eight fungal species = assay: checkerboard interaction with azoles, summary across the eight species; type: cell-based; conditions: geometric mean MIC in combination with azoles
Text: Synergy between lipophilic FPPS inhibitors and azole antifungals was investigated by determining the fractional inhibitory concentration index (FICI) (Fig. 2; Table S1 Fig. S1) ([17]). […]. Derivatives PLA9 and 11, and PDA9, 11, and 12 antagonized azoles in C. albicans, C. neoformans, and C. deuterogattii, yet were largely synergistic in C. glabrata and S. cerevisiae. […].

Cryptococcus neoformans = assay: checkerboard drug interaction (FICI, MICc);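 on all read-outs here: antifungal plus FPPS inhibitor pairs tested against Cryptococcus neoformans by simplified diagonal checkerboard screening, FICI computed under the Loewe additivity model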; type: cell-based; conditions: C. neoformans; for INH FD (MIC-MICc fold decrease): fold decrease of inhibitor MIC
Method: (§2) Drug interactions between antifungals and FPPS inhibitors were investigated using a simplified checkerboard diagonal screening method ([45]). […] FICIs were determined according to the Loewe additivity model ([17]).

Trichophyton rubrum = assay: MIC/MFC broth microdilution (CLSI); conditions: Trichophyton rubrum
Method: as §1

Aspergillus fumigatus [3] = assay: checkerboard drug interaction (FICI, MICc);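 on all read-outs here: simplified diagonal checkerboard screen pairing antifungals with FPPS inhibitors against Aspergillus fumigatus, with FICI calculated under the Loewe additivity model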; type: cell-based; conditions: A. fumigatus; for INH FD (MIC-MICc fold decrease): fold decrease of inhibitor MIC
Method: as §2

[4] = FLC:INH combination, MIC of FLC in combination with the inhibitor
[5] = FLC:INH combination, MIC of the inhibitor in combination with FLC
[6] = FLC:INH combination, fold decrease of FLC MIC
[7] = ITR:INH combination, MIC of ITR in combination with the inhibitor
[8] = ITR:INH combination, MIC of the inhibitor in combination with ITR
[9] = ITR:INH combination, fold decrease of ITR MIC
[10] = KET:INH combination, MIC of KET in combination with the inhibitor
[11] = KET:INH combination, MIC of the inhibitor in combination with KET
[12] = KET:INH combination, fold decrease of KET MIC

CCCCCCCCCN1CCC[C@H]1C(=O)N[C@@H](CC(=O)O)C(=O)O [PLA9]
MFC (Aspergillus fumigatus [1]): > 128 µg/mL
MIC (Aspergillus fumigatus [1]): > 128 µg/mL
FICI (FLC:INH) (Aspergillus flavus; Fractional Inhibitory Concentration Index, fluconazole + inhibitor): 2
FICI (ITR:INH) (Aspergillus flavus; Fractional Inhibitory Concentration Index, itraconazole + inhibitor): 1.5
FICI (KET:INH) (Aspergillus flavus; Fractional Inhibitory Concentration Index, ketoconazole + inhibitor): 1
INH MICc (FLC:INH) (Aspergillus flavus; MIC of the inhibitor in combination with fluconazole): 256
INH MICc (ITR:INH) (Aspergillus flavus; MIC of the inhibitor in combination with itraconazole): 128
INH MICc (KET:INH) (Aspergillus flavus; MIC of the inhibitor in combination with ketoconazole): 128
FLC FD (FLC:INH) (Aspergillus flavus; MIC-MICc fold decrease of fluconazole, negative = increase): 1
ITR FD (ITR:INH) (Aspergillus flavus; MIC-MICc fold decrease of itraconazole, negative = increase): 1
KET FD (KET:INH) (Aspergillus flavus; MIC-MICc fold decrease of ketoconazole, negative = increase): 2
INH FD (FLC:INH) (Aspergillus flavus; MIC-MICc fold decrease of the inhibitor, with fluconazole): 1
INH FD (ITR:INH) (Aspergillus flavus; MIC-MICc fold decrease of the inhibitor, with itraconazole): 2
INH FD (KET:INH) (Aspergillus flavus; MIC-MICc fold decrease of the inhibitor, with ketoconazole): 2
FICI (Saccharomyces cerevisiae; FLC:INH combination): 0.31
FLC MICc (Saccharomyces cerevisiae; [4]): 1
INH MICc (Saccharomyces cerevisiae; [5]): 16
FLC FD (MIC-MICc fold decrease) (Saccharomyces cerevisiae; [6]): 4
INH FD (MIC-MICc fold decrease) (Saccharomyces cerevisiae; FLC:INH combination): 16
FICI (Saccharomyces cerevisiae; ITR:INH combination): 0.5
ITR MICc (Saccharomyces cerevisiae; [7]): 0.063
INH MICc (Saccharomyces cerevisiae; [8]): 64
ITR FD (MIC-MICc fold decrease) (Saccharomyces cerevisiae; [9]): 4
INH FD (MIC-MICc fold decrease) (Saccharomyces cerevisiae; ITR:INH combination): 4
FICI (Saccharomyces cerevisiae; KET:INH combination): 0.19
KET MICc (Saccharomyces cerevisiae; [10]): 0.25
INH MICc (Saccharomyces cerevisiae; [11]): 16
KET FD (MIC-MICc fold decrease) (Saccharomyces cerevisiae; [12]): 8
INH FD (MIC-MICc fold decrease) (Saccharomyces cerevisiae; KET:INH combination): 16
MFC [2]: > 128 µg/mL
MIC [2]: > 128 µg/mL
GM fungal MICc (eight fungal species): 53.8
FICI (Cryptococcus neoformans; FLC:INH combination): ≥4
INH MICc (Cryptococcus neoformans; [5]): 256
FLC FD (MIC-MICc fold decrease) (Cryptococcus neoformans; [6]): < -4
INH FD (MIC-MICc fold decrease) (Cryptococcus neoformans; FLC:INH combination): 1
FICI (Cryptococcus neoformans; ITR:INH combination): ≥4
INH MICc (Cryptococcus neoformans; [8]): 128
ITR FD (MIC-MICc fold decrease) (Cryptococcus neoformans; [9]): -4
INH FD (MIC-MICc fold decrease) (Cryptococcus neoformans; ITR:INH combination): 2
FICI (Cryptococcus neoformans; KET:INH combination): ≥4
INH MICc (Cryptococcus neoformans; [11]): 128
KET FD (MIC-MICc fold decrease) (Cryptococcus neoformans; [12]): -4
INH FD (MIC-MICc fold decrease) (Cryptococcus neoformans; KET:INH combination): 2
MFC (Trichophyton rubrum): > 128 µg/mL
MIC (Trichophyton rubrum): > 128 µg/mL
FICI (Aspergillus fumigatus [3]; FLC:INH combination): 2
FLC MICc (Aspergillus fumigatus [3]; [4]): 128
INH MICc (Aspergillus fumigatus [3]; [5]): 256
FLC FD (MIC-MICc fold decrease) (Aspergillus fumigatus [3]; [6]): 1
INH FD (MIC-MICc fold decrease) (Aspergillus fumigatus [3]; FLC:INH combination): 1
FICI (Aspergillus fumigatus [3]; ITR:INH combination): 0.51
ITR MICc (Aspergillus fumigatus [3]; [7]): 0.063
INH MICc (Aspergillus fumigatus [3]; [8]): 2
ITR FD (MIC-MICc fold decrease) (Aspergillus fumigatus [3]; [9]): 2
INH FD (MIC-MICc fold decrease) (Aspergillus fumigatus [3]; ITR:INH combination): 128
FICI (Aspergillus fumigatus [3]; KET:INH combination): 1.5
KET MICc (Aspergillus fumigatus [3]; [10]): 4
INH MICc (Aspergillus fumigatus [3]; [11]): 128
KET FD (MIC-MICc fold decrease) (Aspergillus fumigatus [3]; [12]): 1
INH FD (MIC-MICc fold decrease) (Aspergillus fumigatus [3]; KET:INH combination): 2
